This passage reports cytotoxicity results from ChEMBL document CHEMBL3507680, “University of Dundee, Gates Library screen for HepG2 cell viability”.

A short description of the data set: Human HepG2 cell viability assay in 384 well format. Type of data set: toxicity, cell-based. Further details: dose 125 nL, time 70.5 hour; concentration not given beside the values. To be noted: HepG2 cells, read-out: Inhibition.
On to `COc1cccc(C(=O)N2CCN(Cc3nc(C(C)C)no3)CC2)c1`, for which the cytotoxicity at 70.5 h is -5.91%. To `CCOc1cc([C@@H]2N[C@H](c3nccs3)Cc3ccsc32)ccc1OC` belongs -3%; to `Cn1cc(-c2ncc3c(c2C(=O)O)CCN(CC2CC2)C3)cn1`, -1.4%.

As to `CCc1noc(C(C)Sc2nnc(C3CC3)n2CC(N)=O)n1` (centres undefined), the cytotoxicity at 70.5 h was -0.541%. With `CN(C)Cc1noc2c1CN(Cc1ccsc1)CC2` the figure was -5.59%; with `CCCn1ccnc1CN1CCC(Oc2cccc(F)c2)(C(=O)O)CC1`, -11%.

Take `CCCS(=O)(=O)N1CCC(Oc2ccc(C#N)cc2)CC1`: the cytotoxicity at 70.5 h was found to be 4.2%. To `CC(C)(Oc1ccc(C(N)=O)cc1)C(=O)N(CCC#N)CC1CCCO1` (centres undefined) belongs 6.27%.

As for `CC[C@H](C)Cn1nc(C2CCNCC2)n(Cc2ccccc2)c1=O`, the cytotoxicity at 70.5 h was -2.63%.

For the molecule `CC(C)CCN1CCN(C(=O)c2ccc(=O)[nH]n2)CC1`, the cytotoxicity at 70.5 h was -7.24%. To `Cn1cnc2c1C(COCC1CC1)CN(Cc1ccsc1)C2` (centres undefined) belongs 5.05%. With `COc1ccccc1OCC(=O)NCC(C)(O)c1ccccc1` (centres undefined), the cytotoxicity at 70.5 h was -12.5%. For `Cc1nc(CCC(=O)NC2CCC2)cc(C2CCNCC2)n1`, the cytotoxicity at 70.5 h is 21.9%. With `CCc1cc(CN(C)C(=O)c2cnc3c(c2)nc(N)n3CC)on1`, the cytotoxicity at 70.5 h is -2.5%. Take `CCCN1CCC(CC(=O)N(C)C(C)c2cncs2)CC1` (centres undefined): the cytotoxicity at 70.5 h is -16.1%. In the case of `CC(C)c1nccn1CCCNC(=O)c1ccc(-c2ccncc2)nc1`, the cytotoxicity at 70.5 h is 17.9%.

As for `CN(C)c1cc(CNC(=O)c2ccc(F)cc2F)ccn1`, the cytotoxicity at 70.5 h is -10.5%. `Cc1nc(CC(C)C)sc1C(=O)N1CCC1`: the cytotoxicity at 70.5 h is -2.02%. On to `c1cc(-c2noc(CN3CCn4c(nnc4C4CC4)C3)n2)cs1`, for which the cytotoxicity at 70.5 h was -19.2%. In the case of `CCCN(CC(=O)NC)C(=O)c1ccc(-c2ccsc2)nc1C`, the cytotoxicity at 70.5 h is -4.88%. To `COc1c(F)cc(NCC(=O)NC(C)(C#N)C2CC2)cc1F` (centres undefined) belongs -0.61%; to `CC(=O)NC1CCN(C(=O)c2cnc(COc3ccccc3)nc2O)C1` (centres undefined), -4.02%.

With `NC(=O)N1CCCC(C(=O)N2CCc3c(nc(CC4CC4)[nH]c3=O)C2)C1` (centres undefined), the cytotoxicity at 70.5 h is -6.32%. To `CCc1nc(CN2CCN(C(=O)c3csc(C(C)C)n3)CC2)no1` belongs 33.2%. `COc1cccc2c1OCC(C(=O)NCCn1nc(C)c(Cl)c1C)C2` (centres undefined): the cytotoxicity at 70.5 h is -5.88%. To `O=C(Nc1cccnc1)C1=Cc2ccccc2OC1` belongs 7.74%; to `CC(C)n1c(=O)nc2n1C(=O)N(c1ccc(Cl)cc1)C2`, -21.8%. With `Cc1ccc(C(=O)NCc2cccnc2N(C)C)s1` the figure was -10.9%; with `c1nc(N2CCCC2)ncc1CN1CCCC(CN2CCCCC2)C1` (centres undefined), 24.4%; with `CC(C)CCN1CCC2(CC1)NCc1ccccc1NC2=O`, -7.94%.

Regarding `CCn1c(=O)c2cc(S(N)(=O)=O)ccc2n(CC)c1=O`, the cytotoxicity at 70.5 h was -2.07%. With `Cc1ccc(C(=O)N2CCCN(Cc3cccs3)CC2)n1C` the figure was -7.93%; with `CC1CCN(C(=O)CSCc2nc(C3CC3)no2)CC1`, -2.56%; with `N#Cc1c(F)cccc1Nc1cnn(CC(N)=O)c1`, -112%. For the molecule `NC(=O)NCC(=O)N1C[C@H]2CC[C@@H]1CN(Cc1cscn1)C2`, the cytotoxicity at 70.5 h came to 9.8%. Turning to `COc1cccc(COC(C)C(=O)N(C)Cc2nnc3n2CCC3)c1` (centres undefined), the cytotoxicity at 70.5 h was -3.46%. With `CN(C)C(=O)c1cc(NC(=O)N2CCCC(C(F)(F)F)C2)ccn1` (centres undefined) the figure was -1.06%; with `Cc1nc(CN2C(=O)CC[C@@H]3[C@H]2CCN3C(=O)c2ccno2)cs1`, -1.87%. For the molecule `O=C(NCCCN1CCOCC1)c1ccn(COc2ccc(Br)cc2)n1`, the cytotoxicity at 70.5 h stood at 12.3%.
